This is an account of results in patent US5183826A, “Antiviral agent” (Merck & Co., Inc., priority 1990, dated 1993).

Data set [1] concerns platelet activating factor. Nature of the data set: assay for platelet activating factor.
A further data set deals with T1, HIV protease (Human immunodeficiency virus type 1 group M subtype B, UniProt P12497).
T1 construct: ability of a HIV protease to cleave the peptide bond
Nature of the data set: HIV protease inhibition: cleavage of radiolabelled synthetic peptide substrate (beta-naphthylalanine-proline bond). The class given is biochemical. The conditions noted are these: for Disintegrations/Minute: Blank 236, Total (Control) 4497. The text has this: The HIV protease inhibitor activity may be seen in an assay to test the presence of a compound which affects the ability of a HIV protease to cleave the peptide bond between β-naphthylalanine and proline. A suitable substrate is ^3 H β-casein. However, a synthetic peptide containing the β-naphthylalanine and proline link gives more consistent results and one especially preferred is a peptide which is radioactively labelled at one terminus and arginine substituted at the other terminus thereby allowing the basic end to be bound to a cation exchange resin and the cleaved labelled fragment to be found in the eluate.
In a representative assay, 25 μl of a dilute peptide substrate solution containing 0.5 μl of the substrate in a 100 mM sodium acetate buffer was added to an assay tube containing (a) 45 μl of 111 mM sodium acetate buffer, (b) 25 μl of a diluted protease solution containing 0.4% bovine serum albumin (BSA) and (c) 5 μl of a solution containing from 0.63 to 210 μM of Compound I, or to blank tubes containing 25 μl of 100 mM sodium acetate plus 0.4 percent BSA, 45 μl of 111 mM sodium acetate buffer and 5 μl of dimethyl sulfoxide (DMSO) (99 vols. DMSO plus 1 vol 100 mM tris(hydroxymethyl)aminomethane (TRIS·HCl), pH 7.5). In the tubes, the concentration of the protease solution is 2.0 nM. The assay tubes are then incubated for 37° C. for 60 minutes and the reaction then quenched with 100 μl of 5% H3 PO4.
150 microliters of the reaction mixture was placed on a cation exchange column (Dowex AG-50W-X8, Dow Chemical Company) and the column then washed with 1.85 milliliters of water and the effluents collected in scintillation vials. 7-10 milliliters of scintillation cocktails were added to each vial, the vials vortexed vigorously, then placed in the scintillation counter and counted using the tritium channel. The results were as follows:
The percent inhibition was obtained by the following calculation: [formula]

A short description of data set [2]: solubility in organic solvents. The conditions noted are these: methanol, ethanol, isopropanol, ethyl acetate, chloroform, dimethylformamide, benzene, diethyl ether, dimethyl sulfoxide.
The nature of data set [3]: cytotoxic and other side effects (statement).
For a further data set, the system named is proteases. Nature of the data set: specificity against other proteases (statement). The class given is biochemical. The settings on record: no inhibitory effect or some activity only against proteases whose locus of action is avoidable.

As usually defined, the IC50 is the concentration needed to halve the response being measured. One may read the inhibition as the relative decrease from the control value, in per cent. In the case of `C=C1C(C)C2C(Cc3ccccc3)NC(=O)C23C(OC(C)=O)/C=C/C(C)CC(C)C/C=C/C3C1O` (stereo not shown) [Compound I], in data set [1], the “activity in an assay for platelet activating factor” value was “some activity”. The “HIV protease inhibition (general statement in words)” value at HIV protease was “very effective HIV protease inhibitor”. The IC50 against HIV protease was approximately 6.28 µM. Also, the Disintegrations/Minute on HIV protease (Compound I 2.1 μM) is listed as 3862 Disintegrations/Minute; at HIV protease (Compound I 6.3 μM), 2309 Disintegrations/Minute; on HIV protease (Compound I 21 μM) it was 1139 Disintegrations/Minute; on HIV protease (Compound I 63 μM) it was 550 Disintegrations/Minute; at HIV protease (Compound I 210 μM), 402 Disintegrations/Minute; on HIV protease (Compound I .63 μM) it was 5265 Disintegrations/Minute. At HIV protease (Compound I 2.1 μM, protease 2.0 nM, 37° C., 60 minutes, read-out: Percent Inhibition), the inhibition at 2.1 µM worked out at 15%. Besides, the inhibition at 6.3 µM at HIV protease (Compound I 6.3 μM, protease 2.0 nM, 37° C., 60 minutes, read-out: Percent Inhibition) was 51%. Besides, the inhibition at 21 µM (stock) on HIV protease (Compound I 21 μM, protease 2.0 nM, 37° C., 60 minutes, read-out: Percent Inhibition) came to 79%. The inhibition at 63 µM at HIV protease (Compound I 63 μM, protease 2.0 nM, 37° C., 60 minutes, read-out: Percent Inhibition) was found to be 93%. For the same compound, the inhibition at 210 µM on HIV protease (Compound I 210 μM, protease 2.0 nM, 37° C., 60 minutes, read-out: Percent Inhibition) worked out at 96%. For the same compound, on HIV protease (Compound I .63 μM, protease 2.0 nM, 37° C., 60 minutes, read-out: Percent Inhibition), the inhibition at 0.63 µM (stock) is -18%. For the same compound, at HIV protease (concentration of Compound I about 63 μm or greater), the “inhibition of HIV protease (in words)” value is “very high degree to substantially complete inhibition”. Also, the “solubility in organic solvents” value in data set [2] is reported as “soluble in organic solvents”. In addition, in data set [3], the “undesirable cytotoxic and other side effects” value was “substantially free of undesirable cytotoxic and other side effects”. Also, the specificity among proteases entry in the data set with proteases was “highly specific having no inhibitory effect or showing some activity only against proteases whose locus of action is avoidable”.
